The source of these data is US6500858B2, “Taxoid anti-tumor agents and pharmaceutical compositions thereof” (The Research Foundation of the state University of New York, priority 1994, dated 2002).

The subject of test [1] is MCF7-R (mammary carcinoma cells 180-fold resistant to adriamycin). Put plainly: tumor cell growth inhibition (SRB, 72 h drug exposure). The format is cell-based, human. The settings on record: for pIC50: Table 2. On the procedure: (§1) Lower numbers indicate higher potency. […] The data represent the mean values of at least three separate experiments. Lower numbers indicate greater activity.
(§2) Assessment of cell growth inhibition was determined according to the methods of Skehan et al., J. Nat. Cancer Inst. […] Briefly, cells were plated between 400 and 1200 cells/well in 96 well plates and incubated at 37° C. for 15-18 h prior to drug addition to allow attachment of cells. […] After a 72 h incubation, […] of ice-cold 50% TCA was added to each well and incubated for 1 h at 4° C. Plates were then washed 5 times with tap water to remove TCA, low-molecular-weight metabolites and serum proteins. Sulforhodamine B (SRB) (0.4%, […]) was added to each well. Following a 5 min incubation at room temperature, plates were rinsed 5 times with 0.1% acetic acid and air dried. […] Optical density was measured at 570 nm.

The subject of another test is MCF7 (mammary carcinoma). The description is as above. Particulars: Table 2; read-out: MCF7 IC50. The format is cell-based, human. The protocol: as §1, §2

pIC50: −log10 of the molar value.

For orientation: pIC50 means −log10 of the IC50, conventionally taken in molar units. Turning to `CCC(=O)OC1C(=O)C2(C)C(O)CC3OCC3(OC(C)=O)C2C(OC(=O)c2ccccc2)C2(O)CC(OC(=O)C(O)C(CC(C)C)NC(=O)OC(C)(C)C)C(C)=C1C2(C)C` (centres unmarked) [Taxoid Ib′, 3′-dephenyl-3′-(2-methylpropyl)-10-propanoyldocetaxel], the pIC50 in test [1] is 8.55; in the test on MCF7 (mammary carcinoma) it was 9.46.

For the compound `CC(=O)OC12COC1CC(O)C1(C)C(=O)C(OC(=O)C3CC3)C3=C(C)C(OC(=O)C(O)C(C=C(C)C)NC(=O)OC(C)(C)C)CC(O)(C(OC(=O)c4ccccc4)C21)C3(C)C` (centres unmarked) [Taxoid Ic, 3′-Dephenyl-3′-(2-methyl-1-propenyl)-10-cyclopropanecarbonyldocetaxel], the “times better activity than paclitaxel and docetaxel against drug-resistant human breast cells” value in test [1] (MCF7-R) amounted to 142 times. The pIC50 in test [1] is 8.68; in the test on MCF7 (mammary carcinoma), 9.70.

For the compound `CC(=O)OC12COC1CC(O)C1(C)C(=O)C(OC(=O)C3CC3)C3=C(C)C(OC(=O)C(O)C(CC(C)C)NC(=O)OC(C)(C)C)CC(O)(C(OC(=O)c4ccccc4)C21)C3(C)C` (centres unmarked) [Taxoid Ic′, 3′-Dephenyl-3′-(2-methylpropyl)-10-cyclopropanecarbonyldocetaxel], the figures for the pIC50 (in test [1]; with MCF7 (mammary carcinoma)) were 8.36 and 9.29, respectively.

With `CC=CC(=O)OC1C(=O)C2(C)C(O)CC3OCC3(OC(C)=O)C2C(OC(=O)c2ccccc2)C2(O)CC(OC(=O)C(O)C(C=C(C)C)NC(=O)OC(C)(C)C)C(C)=C1C2(C)C` (centres unmarked) [Taxoid Id, 3′-Dephenyl-3′-(2-methyl-1-propenyl)-10-crotonoyldocetaxel], the pIC50 is 8.47 in test [1] and 9.59 with MCF7 (mammary carcinoma).

With `CC(=O)OC12COC1CC(O)C1(C)C(=O)C(OC(=O)N(C)C)C3=C(C)C(OC(=O)C(O)C(C=C(C)C)NC(=O)OC(C)(C)C)CC(O)(C(OC(=O)c4ccccc4)C21)C3(C)C` (centres unmarked) [Taxoid Ie, 3′-Dephenyl-3′-(2-methyl-1-propenyl)-O-N,N-dimethylcarbamoyldocetaxel], the pIC50 in test [1] is 8.31; with MCF7 (mammary carcinoma), 9.89.

With `CC(=O)OC12COC1CC(O)C1(C)C(=O)C(OC(=O)N(C)C)C3=C(C)C(OC(=O)C(O)C(CC(C)C)NC(=O)OC(C)(C)C)CC(O)(C(OC(=O)c4ccccc4)C21)C3(C)C` (centres unmarked) [Taxoid Ie′, 3′-Dephenyl-3′-(2-methylpropyl)-10-N,N-dimethylcarbamoyldocetaxel], the pIC50 in test [1] is 8.24; in the test with MCF7 (mammary carcinoma), 9.44.

As to `COC(=O)OC1C(=O)C2(C)C(O)CC3OCC3(OC(C)=O)C2C(OC(=O)c2ccccc2)C2(O)CC(OC(=O)C(O)C(C=C(C)C)NC(=O)OC(C)(C)C)C(C)=C1C2(C)C` (centres unmarked) [Taxoid If, 3′-Dephenyl-3′-(2-methyl-1-propenyl)-10-methoxycarbonyldocetaxel], the values for the pIC50 (in test [1]; in the test with MCF7 (mammary carcinoma)) were 8.28 and 9.85, respectively.

On to `COC(=O)OC1C(=O)C2(C)C(O)CC3OCC3(OC(C)=O)C2C(OC(=O)c2ccccc2)C2(O)CC(OC(=O)C(O)C(CC(C)C)NC(=O)OC(C)(C)C)C(C)=C1C2(C)C` (centres unmarked) [Taxoid If′, 3′-Dephenyl-3′-(2-methylpropyl)-10-methoxycarbonyldocetaxel], for which the pIC50 was 8.20 in test [1] and 9.32 in the test on MCF7 (mammary carcinoma).
